What all share (assay type): cell-based
In one assay the test system is IL-1β. The assay is described as follows: Whole bovine blood assay, LPS-induced IL-1β (inhibition / overstimulation). The following applies: drug concentration giving overstimulation (OS) of LPS-induced IL-1β, top concentration 250 μM. Here is the method: Whole Blood Assay-Fresh whole bovine blood samples were collected into heparinized vacutainer tubes. Assay plates were prepared with 25 μL of drug diluted in PBS at varying concentration in 96 round bottom wells, then 225 μL of blood was added and plates incubated at 37° C. for 4 hours. Cells were stimulated with LPS (or PBS for controls) by adding 25 μL to the plates at a final concentration of 1 μg/mL and incubated at 37° C. for 18 hours. To collect plasma, plates were centrifuged at 2,000×g for 10 minutes and 100 μL of supernatant was transferred to a 96 well polypropylene plate that was sealed and stored at −80° C. Samples were assayed for cytokines using the Meso Scale Discovery (MSD) platform (described below). This same MSD platform was used to assess cytokines in the plasma collected directly from drug treated animals.
Cytokine Detection—An MSD U-Plex cytokine assay was developed following the MSD U-Plex protocol guide and included biotinylated capture antibodies against: bovine Interleukin (IL)-1β (Biorad), bovine IL-6 (R&D Systems) and bovine tumor necrosis factor (TNF)-α (R&D Systems). The anti-IL-1β antibody was biotinylated using EZ-Link Sulfo-NHS-Biotin (Thermo Scientific) at a challenge ratio of 1:20 according to manufacturer instructions. Assay calibrators (Kingfisher) were diluted to a concentration of […] in control lithium heparin plasma, followed by 4-fold serial dilutions into plasma. The detection antibodies were sulfo-tagged following the MSD quick guide conjugation protocol using a challenge ratio of 1:20. Antibodies were used at the following concentrations: anti-IL-1β at 1 μg/mL, anti-IL-6 at 1 μg/mL and anti-TNF-α at 0.5 μg/mL. Cytokines were quantified according to manufacturer's instructions using a chemiluminescent readout. In brief, 0.5 mL of all biotinylated antibodies were diluted to 10 μg/mL with Diluent 100 and paired to their respective linkers by adding 750 μL of supplied Linker solution and incubated for 30 minutes followed by addition of Stop solution for another 30 minutes. The linked antibodies were then diluted 10-fold into Stop solution. Plates were coated by adding 50 μL of antibody solutions per well and incubated covered and shaking for 1 hour at room temperature. Plates were washed three times with PBS/Tween20 prior to samples or standards being added at 30 μL per well and incubated as above. Plates were washed three times before detection antibodies were added along with 2% goat and rabbit serum to block and incubated same as above. Plates were washed a further three times before addition of 150 μL 2X Read buffer and read immediately on the SI6000 instrument (MSD). For soluble protein levels, a BCA protein kit (Thermofisher) was used. The cytokine concentrations (pg/mL) were normalized to the total protein levels for each sample. [Bassel et. al., BMC Veterinary Research (2020) 16:168]
Therefore, a fresh whole bovine blood assay was developed with LPS as a stimulant (TLR-4 agonist) and with IL-1β and TNF-α as the read-out. Compounds of the invention were evaluated against a positive control for their ability to inhibit LPS-induced IL-1β and TNF-α as an overall evaluation of relative potency and modulation of target pathways.
For M9, the top dose of 500 μM was not high enough to determine an overstimulation of IL-1 B which was recorded as not applicable (n/a). The enhanced response indicates increased concentration of IL-1β cytokine at the drug concentration indicated. This is generally observed when compounds are out of range (high concentration) and stimulate a cellular toxicity signal. Further data supporting this hypothesis includes murine studies using a P. multocida infection in mice.
TNFα is a cell signaling protein, cytokine, that plays a key role in both acute and chronic inflammation. […]

Another assay deals with TNF-α. The assay is described as follows: Whole bovine blood assay, LPS-induced TNF-α. The note with it: fresh whole bovine blood, LPS stimulant; top drug concentration 250 μM. The procedure, abridged:
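Fresh heparinized bovine whole blood was preincubated with compound 4 h at 37 °C, then stimulated with LPS (final 1 μg/mL) for 18 h at 37 °C. Plasma TNF-α was quantified by MSD U-Plex chemiluminescent immunoassay, normalized to total protein (BCA), and IC50 taken for LPS-induced TNF-α inhibition.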

Another assay concerns IL-6. The assay is described as follows: Whole bovine blood assay, LPS-induced IL-6. The following applies: fresh whole bovine blood, LPS stimulant; top drug concentration 250 μM.

Results on 17 molecules are retold here after patent publication US20250236616A1, “IMMUNOMODULATING AZALIDES” (Zoetis Services LLC, priority 2021, published 2025).

The minimal effective concentration is the lowest level tested that produced the effect sought. Read a high minimal effective concentration as a need for much substance. Usually IC50 stands for the midpoint of a concentration-inhibition curve. A high value points to weaker potency in that assay.

`CC[C@H]1OC(=O)[C@H](C)[C@@H](O)[C@H](C)[C@@H](O[C@@H]2O[C@H](C)C[C@H](N(C)S(=O)(=O)c3nccn3C)[C@H]2Oc2ccc(F)c(C(F)(F)F)c2)[C@](C)(O)C[C@@H](C)CN[C@H](C)[C@@H](O)[C@]1(C)O` [Example A-34] had a minimal effective concentration in the assay with IL-1β of 40 µM. The values for the IC50 in the assay with TNF-α and with IL-6 were 205 µM and 59 µM, respectively.

`CCCNC[C@]1(O)[C@H](C)O[C@@H](O[C@H]2[C@H](C)[C@@H](O[C@@H]3O[C@H](C)C[C@H]4[C@H]3OS(=O)(=O)N4C)[C@](C)(O)C[C@@H](C)CN[C@H](C)[C@@H](O)[C@](C)(O)[C@@H](CC)OC(=O)[C@@H]2C)C[C@@]1(C)OC` [Example D-1]: in the assay with IL-1β, the minimal effective concentration is 16 µM. Moreover, the IC50 in the assay with TNF-α came out at 5 µM; in the assay on IL-6, 27 µM.

In turn, `CCCNC[C@]1(O)[C@H](C)O[C@@H](O[C@H]2[C@H](C)[C@@H](O[C@@H]3O[C@H](C)C[C@H](N(Cc4ccc(OC)cc4)S(=O)(=O)c4ccc(OC)cc4)[C@H]3O)[C@](C)(O)C[C@@H](C)CN[C@H](C)[C@@H](O)[C@](C)(O)[C@@H](CC)OC(=O)[C@@H]2C)C[C@@]1(C)OC` [Example B-147] registered a minimal effective concentration in the assay on IL-1β of 1 µM. Further, the IC50 with TNF-α is 7 µM; in the assay with IL-6, 5 µM.

Take `CCCNC[C@]1(O)[C@H](C)O[C@@H](O[C@H]2[C@H](C)[C@@H](O[C@@H]3O[C@H](C)C[C@H](N(Cc4ccccc4)S(=O)(=O)c4ccccc4)[C@H]3O)[C@](C)(O)C[C@@H](C)CN[C@H](C)[C@@H](O)[C@](C)(O)[C@@H](CC)OC(=O)[C@@H]2C)C[C@@]1(C)OC` [Example B-145]: in the assay on IL-1β, the minimal effective concentration turned out to be 2 µM. The 50% inhibitory concentration (IC50) was determined as 8 µM with TNF-α and 6 µM in the assay with IL-6.

On to `CC[C@H]1OC(=O)[C@H](C)[C@@H](O)[C@H](C)[C@@H](O[C@@H]2O[C@H](C)C[C@H](N(C)S(=O)(=O)c3nccn3C)[C@H]2Oc2ccc(F)cc2)[C@](C)(O)C[C@@H](C)CN[C@H](C)[C@@H](O)[C@]1(C)O` [Example A-27], for which the minimal effective concentration in the assay with IL-1β is 100 µM. The IC50 in the assay with TNF-α amounted to 141 µM; with IL-6, 66 µM.

For `CC[C@H]1OC(=O)[C@H](C)[C@@H](O[C@H]2C[C@@](C)(OC)[C@](O)(CNC)[C@H](C)O2)[C@H](C)[C@@H](O[C@@H]2O[C@H](C)C[C@H](N(C)S(=O)(=O)Nc3ccc(C(F)(F)F)cc3)[C@H]2O)[C@](C)(O)C[C@@H](C)CN[C@H](C)[C@@H](O)[C@]1(C)O` [Example B-76], the minimal effective concentration in the assay with IL-1β is above 250 µM. The IC50 in the assay on TNF-α and in the assay on IL-6 was above 250 µM each time.

The molecule `CCCNC[C@]1(O)[C@H](C)O[C@@H](O[C@H]2[C@H](C)[C@@H](O[C@@H]3O[C@H](C)C[C@H](N(C)S(=O)(=O)N(C)Cc4ccccc4)[C@H]3O)[C@](C)(O)C[C@@H](C)CN[C@H](C)[C@@H](O)[C@](C)(O)[C@@H](CC)OC(=O)[C@@H]2C)C[C@@]1(C)OC` [Example B-44] showed a minimal effective concentration in the assay with IL-1β of 3 µM. Besides, the IC50 in the assay on TNF-α stood at 13 µM; in the assay on IL-6, 9 µM.

`CCCNC[C@]1(O)[C@H](C)O[C@@H](O[C@H]2[C@H](C)[C@@H](O[C@@H]3O[C@H](C)C[C@H](N(C)S(=O)(=O)N(C)CC(F)(F)F)[C@H]3O)[C@](C)(O)C[C@@H](C)CN[C@H](C)[C@@H](O)[C@](C)(O)[C@@H](CC)OC(=O)[C@@H]2C)C[C@@]1(C)OC` [Example B-112] yielded a minimal effective concentration in the assay on IL-1β of 40 µM. The results for the IC50 with TNF-α and in the assay with IL-6 were 39 µM and 45 µM, respectively.

For `CCCNC[C@]1(O)[C@H](C)O[C@@H](O[C@H]2[C@H](C)[C@@H](O[C@@H]3O[C@H](C)C[C@H](N(C)S(=O)(=O)c4ccc(Br)cc4)[C@H]3Oc3ccc(OC)cc3)[C@](C)(O)C[C@@H](C)CN[C@H](C)[C@@H](O)[C@](C)(O)[C@@H](CC)OC(=O)[C@@H]2C)C[C@@]1(C)OC` [Example B-104], the minimal effective concentration with IL-1β was 3 µM. In addition, the IC50 in the assay with TNF-α stood at 15 µM; in the assay with IL-6, 7 µM.

In the assay with IL-1β, `CCCNC[C@]1(O)[C@H](C)O[C@@H](O[C@H]2[C@H](C)[C@@H](O[C@@H]3O[C@H](C)C[C@H](N(C)S(=O)(=O)c4cnc(Cl)c(Br)c4)[C@H]3Oc3ccc(OC)cc3)[C@](C)(O)C[C@@H](C)CN[C@H](C)[C@@H](O)[C@](C)(O)[C@@H](CC)OC(=O)[C@@H]2C)C[C@@]1(C)OC` [Example B-117] gave a minimal effective concentration of 16 µM. The same molecule had an IC50 in the assay with IL-6 of 142 µM.

In the assay with IL-1β, `CCCNC[C@]1(O)[C@H](C)O[C@@H](O[C@H]2[C@H](C)[C@@H](O[C@@H]3O[C@H](C)C[C@H](N(C)S(=O)(=O)c4ccccc4)[C@H]3Oc3cccc(CO)c3)[C@](C)(O)C[C@@H](C)CN[C@H](C)[C@@H](O)[C@](C)(O)[C@@H](CC)OC(=O)[C@@H]2C)C[C@@]1(C)OC` [Example B-133] displayed a minimal effective concentration of 16 µM. In the assay with IL-6, this molecule gave an IC50 of 24 µM.

Consider `CC[C@H]1OC(=O)[C@H](C)[C@@H](O[C@H]2C[C@@](C)(OC)[C@](O)(CNCCc3ccncc3)[C@H](C)O2)[C@H](C)[C@@H](O[C@@H]2O[C@H](C)C[C@H](N(C)S(=O)(=O)c3ccc(Cl)cc3)[C@H]2O)[C@](C)(O)C[C@@H](C)CN[C@H](C)[C@@H](O)[C@]1(C)O` [Example B-29], for which the minimal effective concentration in the assay with IL-1β is 12 µM. In addition, the IC50 in the assay with IL-6 is 54 µM.

For `CC[C@H]1OC(=O)[C@H](C)[C@@H](O[C@H]2C[C@@](C)(OC)[C@](O)(CN3CCCCC3)[C@H](C)O2)[C@H](C)[C@@H](O[C@@H]2O[C@H](C)C[C@H](N(C)S(=O)(=O)Nc3ccccc3)[C@H]2O)[C@](C)(O)C[C@@H](C)CN(CC)[C@H](C)[C@@H](O)[C@]1(C)O` [Example C-20], the minimal effective concentration in the assay with IL-1β turned out to be 10 µM. In addition, the midpoint of inhibition in the assay on IL-6, the IC50, lay at 24 µM.

In the assay with IL-1β, `CC[C@H]1OC(=O)[C@H](C)[C@@H](O[C@H]2C[C@@](C)(OC)[C@](O)(Cn3ccnc3)[C@H](C)O2)[C@H](C)[C@@H](O[C@@H]2O[C@H](C)C[C@H](N(C)S(=O)(=O)c3ccc(Cl)cc3)[C@H]2O)[C@](C)(O)C[C@@H](C)CN[C@H](C)[C@@H](O)[C@]1(C)O` [Example C-5] showed a minimal effective concentration of 16 µM. This molecule registered an IC50 in the assay with IL-6 of 31 µM.

`CCCNC[C@]1(O)[C@H](C)O[C@@H](O[C@H]2[C@H](C)[C@@H](O[C@@H]3O[C@H](C)C[C@H](N(C)S(=O)(=O)c4cccnc4Cl)[C@H]3Oc3ccc(OC)cc3)[C@](C)(O)C[C@@H](C)CN[C@H](C)[C@@H](O)[C@](C)(O)[C@@H](CC)OC(=O)[C@@H]2C)C[C@@]1(C)OC` [Example B-124] gave a minimal effective concentration in the assay with IL-1β of 6 µM. For the same molecule, in the assay with IL-6, the IC50 is 4 µM.

`CC[C@H]1OC(=O)[C@H](C)[C@@H](O[C@H]2C[C@@](C)(OC)[C@](O)(CN3CCC3)[C@H](C)O2)[C@H](C)[C@@H](O[C@@H]2O[C@H](C)C[C@H](N(C)S(=O)(=O)c3ccc(Cl)cc3)[C@H]2O)[C@](C)(O)C[C@@H](C)CN[C@H](C)[C@@H](O)[C@]1(C)O` [Example C-2] showed a minimal effective concentration in the assay with IL-1β of 6 µM. Moreover, in the assay on IL-6, the IC50 amounted to 13 µM.

In the assay with IL-1β, `CCCN([C@H]1C[C@@H](C)O[C@@H](O[C@@H]2[C@@H](C)[C@H](O[C@H]3C[C@@](C)(OC)[C@](O)(CN4CCCCC4)[C@H](C)O3)[C@@H](C)C(=O)O[C@H](CC)[C@@](C)(O)[C@H](O)[C@@H](C)NC[C@H](C)C[C@@]2(C)O)[C@@H]1O)S(=O)(=O)c1ccc(OC)cc1` [Example C-41] gave a minimal effective concentration above 250 µM. In the assay with IL-6, this molecule registered an IC50 of 4 µM.
